According to patent EP4653451A1, “POLYPEPTIDE COMPOUND AND USE THEREOF” (Chengdu New Radiomedicine Technology Co., Ltd., priority 2023, dated 2024):
Counter-ions that a name gives are not always drawn. Like-named read-outs stand apart in the source and are kept apart here. Numbered stars: 1 amine (or outer) side, 2 acyl side, 3 side chain; on linkers, the order of the positions; unused ones are H or OH. Bridge positions count the residues as written; N and C are the ends. Square brackets hold non-standard residues; d marks the D form. Peptide text beside a SMILES is read from it. * marks the point of attachment. X1 = O=C(O)CN1CCN(CC(=O)O)CCN(CC(=O)NCCSCc2cc(CSC[C@@H](CNC(=O)C3CCCC3)N[*:2])cc(C[*:1])c2)CCN(CC(=O)O)CC1; 1Nal = N[C@@H](Cc1cccc2ccccc12)C(=O)O; mXylylene = c1cc(C[*:1])cc(C[*:2])c1; Cha = N[C@@H](CC1CCCCC1)C(=O)O; NH(4-picolyl) = c1cc(CN*)ccn1; β3hC = N[C@@H](CS)CC(=O)O; Nle = CCCC[C@H](N)C(=O)O; Hexanoyl = CCCCCC(=O)*; NHcPent = C1CCC(N*)C1; NHBn = c1ccc(CN*)cc1; X3 = C1C2CC1(N*)C2; X2 = C1CCC(CN*)C1

Columns and labels:
[1] = target: T1, human recombinant FAP protein (Homo sapiens, UniProt Q12884); experiment: Inhibitory activity against FAP protease activity (Z-Gly-Pro-AMC fluorescence); assay type: biochemical
T1 construct: purchased Acrobiosystems FAP-H82Q6
T1 sequence (Q12884 1-760): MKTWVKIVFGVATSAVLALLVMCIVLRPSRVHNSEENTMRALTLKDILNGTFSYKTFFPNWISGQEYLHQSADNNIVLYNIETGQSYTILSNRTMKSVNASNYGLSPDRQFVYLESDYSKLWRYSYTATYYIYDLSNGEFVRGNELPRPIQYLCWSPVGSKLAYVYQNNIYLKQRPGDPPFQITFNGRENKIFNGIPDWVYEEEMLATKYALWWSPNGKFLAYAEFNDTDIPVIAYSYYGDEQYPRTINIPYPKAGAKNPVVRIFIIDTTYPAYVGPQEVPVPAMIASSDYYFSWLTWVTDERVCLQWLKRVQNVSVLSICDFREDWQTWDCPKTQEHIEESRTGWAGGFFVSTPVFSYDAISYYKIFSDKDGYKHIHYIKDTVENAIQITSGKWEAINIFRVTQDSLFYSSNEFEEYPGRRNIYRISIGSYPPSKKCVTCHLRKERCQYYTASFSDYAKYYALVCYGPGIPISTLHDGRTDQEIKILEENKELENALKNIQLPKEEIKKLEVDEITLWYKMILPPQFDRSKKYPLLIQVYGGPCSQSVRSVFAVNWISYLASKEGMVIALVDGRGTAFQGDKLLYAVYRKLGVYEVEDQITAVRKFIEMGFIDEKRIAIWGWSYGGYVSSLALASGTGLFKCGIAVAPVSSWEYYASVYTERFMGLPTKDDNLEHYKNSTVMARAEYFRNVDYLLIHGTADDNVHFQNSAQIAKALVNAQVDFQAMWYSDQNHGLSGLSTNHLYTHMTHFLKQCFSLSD
Method: The human recombinant FAP protein (Acrobiosystems, FAP-H82Q6) was diluted to a 125 pM FAP working solution with an assay buffer (50 mM Tris-HCl, 1 M NaCl, 1 mg/mL BSA, pH 7.5), and the FAP substrate (Z-Gly-Pro-AMC (LEONBIO, 68542-93-8)) was diluted to a 150 µM substrate working solution with the assay buffer. 40 µl of FAP working solution and 20 µl of compounds at different concentrations (4-fold dilution) were taken, then 40 µl of substrate working solution was added, and the mixture was uniformly mixed on a shaker at room temperature for 1 min. The uniformly mixed mixture was reacted at room temperature in the dark for 90 min. The fluorescence value Ex = 380 nm/Em = 460 nm was read by using a microplate reader. The original data was saved, and the IC50 value of the compound was obtained by using the original data or the Inhibition% via calculation and analyzing the data with Graphpad PRISM.

[2] = target: T2, human recombinant DPP4 protein (Homo sapiens, UniProt P27487); experiment: Inhibitory activity against DPP4 protease activity (H-Gly-Pro-AMC fluorescence); assay type: biochemical; conditions: 125 pM DPP4 working solution, 90 min at room temperature
T2 construct: purchased Acrobiosystems DP4-H5211
T2 sequence (P27487 whole entry): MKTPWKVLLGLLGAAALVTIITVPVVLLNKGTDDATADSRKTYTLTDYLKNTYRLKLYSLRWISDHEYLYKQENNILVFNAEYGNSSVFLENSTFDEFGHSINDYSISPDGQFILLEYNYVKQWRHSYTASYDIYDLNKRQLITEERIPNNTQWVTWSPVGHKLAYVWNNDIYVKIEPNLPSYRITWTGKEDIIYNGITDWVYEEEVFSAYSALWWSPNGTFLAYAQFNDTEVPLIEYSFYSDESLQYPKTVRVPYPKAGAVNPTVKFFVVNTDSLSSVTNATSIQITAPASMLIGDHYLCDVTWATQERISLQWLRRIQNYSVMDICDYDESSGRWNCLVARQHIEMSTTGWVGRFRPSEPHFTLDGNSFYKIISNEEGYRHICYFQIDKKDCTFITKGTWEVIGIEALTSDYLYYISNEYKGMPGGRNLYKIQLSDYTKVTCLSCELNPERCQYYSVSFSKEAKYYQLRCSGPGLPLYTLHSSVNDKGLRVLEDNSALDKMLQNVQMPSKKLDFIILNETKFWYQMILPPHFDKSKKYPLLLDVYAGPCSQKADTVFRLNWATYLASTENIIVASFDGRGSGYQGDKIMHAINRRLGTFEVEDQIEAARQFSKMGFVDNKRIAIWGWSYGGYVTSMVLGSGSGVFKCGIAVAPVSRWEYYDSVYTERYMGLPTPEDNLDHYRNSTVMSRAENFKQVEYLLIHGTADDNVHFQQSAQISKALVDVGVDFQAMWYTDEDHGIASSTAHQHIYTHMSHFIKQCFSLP
Method: The human recombinant DPP4 protein (Acrobiosystems, DP4-H5211) was formulated into a 125 pM working solution with an assay buffer (20 mM Tris-HCl, 100 mM NaCl), and the DPP4 substrate (H-Gly-Pro-AMC.HBr (LEONBIO, 115035-46-6)) was diluted to a 250 µM DPP4 substrate working solution with the assay buffer. 40 µl of DPP4 working solution and 20 µl of compounds at different concentrations (4-fold dilution) were taken, then 40 µl of DPP4 substrate working solution was added, and the mixture was uniformly mixed on a shaker at room temperature for 1 min. The uniformly mixed mixture was reacted at room temperature in the dark for 90 min. Reading was made by microplate reader at excitation and emission wavelengths of 380 nm and 460 nm. The original data was saved, and the IC50 value of the compound was obtained by analyzing the data with Graphpad PRISM.

[3] = Pharmacokinetics after tail vein injection; assay type: in vivo, CD-1 mice; conditions: iv, 0.2 mg/kg
Method: Male CD-1 mice weighing 30-35 g were selected, and a test compound was injected into the tail vein at 0.2 mg/kg. Plasma samples were collected at 5, 15, 30, and 60 min and 2, 4, 8, and 24 h after administration and processed accordingly. The drug content was analyzed by LC-MS/MS.
Among them, compounds 20, 21 and 22 were compounds formed by chelating nonradioactive in with compounds 11, 14 and 16, respectively.

[4] = 125 pM FAP working solution, 90 min at room temperature, read-out: FAP IC50

| IC50 [1, 4] | IC50 [2] | SMILES | also measured |
| --- | --- | --- | --- |
| 1.61 nM | > 10000 nM | CCCCCC(=O)N[C@H]1CSCc2cccc(c2)CSC[C@@H](CC(N)=O)NC(=O)[C@H](Cc2cccc3ccccc23)NC(=O)[C@H](CCC(N)=O)NC(=O)[C@H]([C@@H](C)O)NC(=O)[C@@H]2CCCN2C(=O)[C@@H]2CCCN2C1=O [Compound 31] (Hexanoyl-CPPTQ[1Nal][β3hC]-NH2; linker 1-7 via mXylylene) | – |
| 0.98 nM | > 10000 nM | CCCCCC(=O)N[C@H]1CSCc2cc(CSCCNC(=O)CN3CCN(CC(=O)O)CCN(CC(=O)O)CCN(CC(=O)O)CC3)cc(c2)CSC[C@@H](CNC(=O)CCc2ccc(C(F)(F)F)cc2)NC(=O)[C@H](Cc2cccc3ccccc23)NC(=O)[C@H](CCC(N)=O)NC(=O)[C@H]([C@@H](C)O)NC(=O)[C@@H]2CCCN2C(=O)[C@@H]2CCCN2C1=O [Compound 19, Hex-Cys-Pro-Pro-Thr-Gln-1Nal-Cys-CH2NH-3-(4-trifluoromethylphenyl)propanoic acid (Cys bridge TBMB (DOTA-AET))] | – |
| – | – | CCCCCC(=O)N[C@H]1CSCc2cccc(c2F)CSC[C@@H](CNC(=O)C[C@@H](C)NC(=O)[C@H]2CC[C@H](CNC(=O)CN3CCN(CC(=O)O)CCN(CC(=O)O)CCN(CC(=O)O)CC3)CC2)NC(=O)[C@H](Cc2ccccc2)NC(=O)[C@H](CCC(N)=O)NC(=O)[C@H]([C@@H](C)O)NC(=O)[C@@H]2CCCN2C(=O)[C@@H]2CCCN2C1=O [Compound 22] | AUC(0-t) ([3]; male, CD-1, mouse, in vivo): 740 ng·h/mL; Cmax ([3]; male, CD-1, mouse, in vivo): 1120 ng/mL; Vd ([3]; male, CD-1, mouse, in vivo): 1.18 L/kg; clearance ([3]; male, CD-1, mouse, in vivo): 4.33 mL/min/kg; half-life ([3]; male, CD-1, mouse, in vivo): 7.93 h |
| 7.25 nM | > 10000 nM | CCCCCC(=O)N[C@H]1CSCc2cccc(c2F)CSC[C@@H](C(=O)O)NC(=O)[C@H](Cc2ccccc2)NC(=O)[C@H](CCC(N)=O)NC(=O)[C@H]([C@@H](C)O)NC(=O)[C@@H]2CCCN2C(=O)[C@@H]2CCCN2C1=O [Compound 6, Hex-Cys-Pro-Pro-Thr-Gln-Phe-Cys-OH (Cys bridge 2,6-bis(bromomethyl)fluorobenzene) trifluoroacetate] | – |
| – | – | CCCCCC(=O)N[C@H]1CSCc2cc(CSCCNC(=O)CN3CCN(CC(=O)O)CCN(CC(=O)O)CCN(CC(=O)O)CC3)cc(c2)CSC[C@@H](C(=O)O)NC(=O)[C@H](Cc2ccccc2)NC(=O)[C@H](CCC(N)=O)NC(=O)[C@H]([C@@H](C)O)NC(=O)[C@@H]2CCCN2C(=O)[C@@H]2CCCN2C1=O [Compound 3BP-3623, reference compound] | AUC(0-t) ([3]; mouse, plasma, male CD-1 mice, tail vein, read-out: AUC0-t): 195 ng·h/mL; clearance ([3]; mouse, plasma, male CD-1 mice, tail vein, read-out: Cl (converted)): 17 mL/min/kg; Cmax ([3]; mouse, plasma, male CD-1 mice, tail vein, read-out: Cmax): 594 ng/mL; half-life ([3]; mouse, plasma, male CD-1 mice, tail vein, read-out: T1/2 (converted)): 0.37 h; Vd ([3]; mouse, plasma, male CD-1 mice, tail vein, read-out: Vss): 0.24 L/kg |
| 6.62 nM | > 10000 nM | CCCCCC(=O)N[C@H]1CSCc2cccc(c2)CSC[C@@H](CC(=O)NCC2CCCC2)NC(=O)[C@H](Cc2cccc3ccccc23)NC(=O)[C@H](CCC(N)=O)NC(=O)[C@H]([C@@H](C)O)NC(=O)[C@@H]2CCCN2C(=O)[C@@H]2CCCN2C1=O [Compound 35] (Hexanoyl-CPPTQ[1Nal][β3hC]-X2; linker 1-7 via mXylylene) | – |
| 5.92 nM | > 10000 nM | CCCCCC(=O)N[C@H]1CSCc2cccc(c2)CSC[C@@H](CC(=O)NC2CCCC2)NC(=O)[C@H](Cc2cccc3ccccc23)NC(=O)[C@H](CCC(N)=O)NC(=O)[C@H]([C@@H](C)O)NC(=O)[C@@H]2CCCN2C(=O)[C@@H]2CCCN2C1=O [Compound 34] (Hexanoyl-CPPTQ[1Nal][β3hC]-NHcPent; linker 1-7 via mXylylene) | – |
| 4.12 nM | > 10000 nM | CCCCCC(=O)N[C@H]1CSCc2cccc(c2)CSC[C@@H](CC(=O)NC23CC(C2)C3)NC(=O)[C@H](Cc2cccc3ccccc23)NC(=O)[C@H](CCC(N)=O)NC(=O)[C@H]([C@@H](C)O)NC(=O)[C@@H]2CCCN2C(=O)[C@@H]2CCCN2C1=O [Compound 38] (Hexanoyl-CPPTQ[1Nal][β3hC]-X3; linker 1-7 via mXylylene) | – |
| 2.9 nM | > 10000 nM | CCCCCC(=O)N[C@H]1CSCc2cccc(c2)CSC[C@@H](CC(=O)NCc2ccccc2)NC(=O)[C@H](Cc2cccc3ccccc23)NC(=O)[C@H](CCC(N)=O)NC(=O)[C@H]([C@@H](C)O)NC(=O)[C@@H]2CCCN2C(=O)[C@@H]2CCCN2C1=O [Compound 33] (Hexanoyl-CPPTQ[1Nal][β3hC]-NHBn; linker 1-7 via mXylylene) | – |
| 4.67 nM | > 10000 nM | CCCCCC(=O)N[C@H]1CSCc2cccc(c2)CSC[C@@H](CC(=O)NCc2ccncc2)NC(=O)[C@H](Cc2cccc3ccccc23)NC(=O)[C@H](CCC(N)=O)NC(=O)[C@H]([C@@H](C)O)NC(=O)[C@@H]2CCCN2C(=O)[C@@H]2CCCN2C1=O [Compound 37] (Hexanoyl-CPPTQ[1Nal][β3hC]-{NH(4-picolyl)}; linker 1-7 via mXylylene) | – |
| – | – | CCCCCC(=O)N[C@H]1CSCc2cc(CSCCNC(=O)CN3CCN(CC(=O)O)CCN(CC(=O)O)CCN(CC(=O)O)CC3)cc(c2)CSC[C@@H](CNC(=O)C2CCCC2)NC(=O)[C@H](Cc2ccccc2)NC(=O)[C@H](CCC(N)=O)NC(=O)[C@H]([C@@H](C)O)NC(=O)[C@@H]2CCCN2C(=O)[C@@H]2CCCN2C1=O [Compound 21] (Hexanoyl-CPPTQF; linker 1-C via X1) | AUC(0-t) ([3]; male, CD-1, mouse, in vivo): 634 ng·h/mL; Cmax ([3]; male, CD-1, mouse, in vivo): 1010 ng/mL; Vd ([3]; male, CD-1, mouse, in vivo): 0.22 L/kg; clearance ([3]; male, CD-1, mouse, in vivo): 5.17 mL/min/kg; half-life ([3]; male, CD-1, mouse, in vivo): 1.26 h |
| 5.31 nM | > 10000 nM | CCCC[C@H](N)C(=O)N[C@H]1CSCc2cccc(c2)CSC[C@@H](CC(=O)O)NC(=O)[C@H](Cc2cccc3ccccc23)NC(=O)[C@H](CCC(N)=O)NC(=O)[C@H]([C@@H](C)O)NC(=O)[C@@H]2CCCN2C(=O)[C@@H]2CCCN2C1=O [Compound 39] (H-[Nle]CPPTQ[1Nal][β3hC]-OH; linker 2-8 via mXylylene) | – |

| SMILES | IC50 [1, 4] | IC50 [2] | also measured |
| --- | --- | --- | --- |
| CCCCCC(=O)N[C@H]1CSCc2cccc(c2)CSC[C@@H](C(=O)O)NC(=O)[C@H](CC2CCCCC2)NC(=O)[C@H](CCC(N)=O)NC(=O)[C@H]([C@@H](C)O)NC(=O)[C@@H]2CCCN2C(=O)[C@@H]2CCCN2C1=O [Compound 3, Hex-Cys-Pro-Pro-Thr-Gln-Cha-Cys-OH (Cys bridge DBMB) trifluoroacetate] (Hexanoyl-CPPTQ[Cha]C-OH; linker 1-7 via mXylylene) | – | > 10000 nM | IC50 [1]: 25.1 nM |
| CCCCCC(=O)N[C@H]1CSCc2cccc(c2)CSC[C@@H](CC(=O)O)NC(=O)[C@H](Cc2ccccc2)NC(=O)[C@H](CCC(N)=O)NC(=O)[C@H]([C@@H](C)O)NC(=O)[C@@H]2CCCN2C(=O)[C@@H]2CCCN2C1=O [Compound 2, Hex-Cys-Pro-Pro-Thr-Gln-Phe-beta-HomoCys-OH (Cys bridge DBMB) trifluoroacetate] | – | > 10000 nM | IC50 [1]: 4.24 nM |
| CCCCCC(=O)N[C@H]1CSCc2cc(CSCCNC(=O)CN3CCN(CC(=O)O)CCN(CC(=O)O)CCN(CC(=O)O)CC3)cc(c2)CSC[C@@H](CC(=O)O)NC(=O)[C@H](Cc2ccccc2)NC(=O)[C@H](CCC(N)=O)NC(=O)[C@H]([C@@H](C)O)NC(=O)[C@@H]2CCCN2C(=O)[C@@H]2CCCN2C1=O [Compound 8, Hex-Cys-Pro-Pro-Thr-Gln-Phe-beta-HomoCys (Cys bridge TBMB (DOTA-AET)) trifluoroacetate] | – | > 10000 nM | IC50 [1]: 1.18 nM |
